Laboratory results from article PMC8000448, “Inhibitory Effects of Schisandra Lignans on Cytochrome P450s and Uridine 5′-Diphospho-Glucuronosyl Transferases in Human Liver Microsomes” (Pharmaceutics, 2021).
Like-named read-outs stand apart in the source and are kept apart here.

Columns and labels:
[1] = biological target: T1, UGT1A9 (Homo sapiens, UniProt O60656); assay: UGT1A9 inhibition in HLMs (mycophenolic acid); format: in vitro ADME; conditions: average in triplicate, read-out: IC50, UGT 1A9
T1 construct: pooled HLMs (0.25 mg/mL); tissue XenoTech H2630; host or cells: pooled human liver microsomes, mixed gender
T1 sequence (O60656 26-530): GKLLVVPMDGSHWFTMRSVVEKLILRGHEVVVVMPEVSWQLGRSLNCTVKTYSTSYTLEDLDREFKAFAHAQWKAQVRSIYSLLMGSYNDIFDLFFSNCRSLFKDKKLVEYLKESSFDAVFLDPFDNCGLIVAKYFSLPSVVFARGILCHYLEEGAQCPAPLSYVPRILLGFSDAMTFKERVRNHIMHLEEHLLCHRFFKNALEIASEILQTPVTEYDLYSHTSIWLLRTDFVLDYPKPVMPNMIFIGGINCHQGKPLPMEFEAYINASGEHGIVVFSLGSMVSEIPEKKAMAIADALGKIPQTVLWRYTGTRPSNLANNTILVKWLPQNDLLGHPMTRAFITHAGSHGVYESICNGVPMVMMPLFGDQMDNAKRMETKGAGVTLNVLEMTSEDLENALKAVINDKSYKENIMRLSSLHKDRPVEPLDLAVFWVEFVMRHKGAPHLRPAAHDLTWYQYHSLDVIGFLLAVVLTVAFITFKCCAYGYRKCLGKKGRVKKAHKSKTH
Experimental: (§1) The inhibitory potential of six lignans on six UGT activities was evaluated using the previously developed cocktail method with slight modifications. […] These substrates are known to be selective for each UGT isoforms.

[2] = biological target: T2, UGT1A1 (Homo sapiens, UniProt P22309); assay: UGT1A1 inhibition in HLMs (SN-38); format: in vitro ADME; conditions: average in triplicate, read-out: IC50, UGT 1A1
T2 construct: pooled HLMs (0.25 mg/mL); tissue XenoTech H2630; host or cells: pooled human liver microsomes, mixed gender
T2 sequence (P22309 26-533): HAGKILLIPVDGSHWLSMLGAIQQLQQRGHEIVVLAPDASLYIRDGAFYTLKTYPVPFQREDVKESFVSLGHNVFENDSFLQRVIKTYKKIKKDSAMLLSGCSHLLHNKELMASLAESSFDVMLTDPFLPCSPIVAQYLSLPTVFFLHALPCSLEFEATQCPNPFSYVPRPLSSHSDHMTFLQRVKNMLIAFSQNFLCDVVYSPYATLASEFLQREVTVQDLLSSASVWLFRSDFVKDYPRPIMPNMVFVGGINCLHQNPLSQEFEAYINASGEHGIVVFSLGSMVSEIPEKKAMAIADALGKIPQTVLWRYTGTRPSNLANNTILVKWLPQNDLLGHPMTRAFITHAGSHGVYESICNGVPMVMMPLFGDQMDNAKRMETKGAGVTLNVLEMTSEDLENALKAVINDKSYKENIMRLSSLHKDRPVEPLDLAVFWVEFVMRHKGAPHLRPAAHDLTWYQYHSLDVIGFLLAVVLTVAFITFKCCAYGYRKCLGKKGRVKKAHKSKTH
Experimental: as §1

[3] = biological target: CYP2D6 (Homo sapiens, UniProt P10635); assay: CYP2D6 inhibition in HLMs (dextromethorphan)
Sequence of CYP2D6 (P10635 whole entry): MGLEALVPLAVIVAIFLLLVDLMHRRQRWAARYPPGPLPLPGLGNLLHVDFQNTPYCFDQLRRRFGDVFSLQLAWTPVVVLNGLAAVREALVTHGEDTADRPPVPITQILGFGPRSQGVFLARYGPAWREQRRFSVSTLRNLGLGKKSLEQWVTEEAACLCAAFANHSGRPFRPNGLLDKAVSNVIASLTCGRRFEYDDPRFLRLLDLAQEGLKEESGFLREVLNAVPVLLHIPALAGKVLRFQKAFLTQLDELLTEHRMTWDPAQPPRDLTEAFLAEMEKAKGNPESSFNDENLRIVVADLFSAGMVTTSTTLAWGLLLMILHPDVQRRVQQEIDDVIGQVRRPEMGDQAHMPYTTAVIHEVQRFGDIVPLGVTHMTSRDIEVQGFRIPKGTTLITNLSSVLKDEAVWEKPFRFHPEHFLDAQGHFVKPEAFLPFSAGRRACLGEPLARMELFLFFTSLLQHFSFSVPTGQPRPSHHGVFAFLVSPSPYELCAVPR
Experimental: Lignans were first dissolved in methanol. The final organic solvent concentration in the incubation media was ≤1.0% (v/v). The microsomal incubation was conducted using two cocktail sets containing non-interactive substrates: set A containing phenacetin, bupropion, amodiaquine, diclofenac, S-mephenytoin, and dextromethorphan as substrates for CYP1A2, CYP2B6, CYP2C8, CYP2C9, CYP2C19, and CYP2D6, respectively; and set B containing coumarin and chlorzoxazone as substrates for CYP2A6 and CYP2E1, and midazolam, nifedipine, and testosterone as substrates for CYP3A4 (Table 1). These substrates are known to be selective for each P450 isoforms. Incubation mixtures containing potassium phosphate buffer (0.1 M, pH 7.4), pooled HLMs (0.25 mg/mL), P450 probe substrate cocktails, and lignan (0~50 μM) were pre-incubated at 37 °C (5 min). Following pre-incubation, an NADPH generating system (1.3 mM NADP^+, 3.3 mM G6P, 1 unit/mL G6PDH, and 3.3 mM MgCl2) was added to initiate the reaction, and further incubated for 10 min. The reaction was quenched with 50 μL of cold acetonitrile containing internal standard (IS; 7 nM trimipramine). After centrifugation at 14,000 rpm (5 min at 4 °C), aliquots of supernatants were filtered through a 0.2 μm membrane filter and were measured by liquid chromatography-tandem mass spectrometry (LC-MS/MS). All microsomal incubations were performed in triplicate.

[4] = biological target: T3, UGT1A3 (Homo sapiens, UniProt P35503); assay: UGT1A3 inhibition in HLMs (chenodeoxycholic acid); format: in vitro ADME; conditions: average in triplicate, read-out: IC50, UGT 1A3
T3 construct: pooled HLMs (0.25 mg/mL); tissue XenoTech H2630; host or cells: pooled human liver microsomes, mixed gender
T3 sequence (P35503 29-534): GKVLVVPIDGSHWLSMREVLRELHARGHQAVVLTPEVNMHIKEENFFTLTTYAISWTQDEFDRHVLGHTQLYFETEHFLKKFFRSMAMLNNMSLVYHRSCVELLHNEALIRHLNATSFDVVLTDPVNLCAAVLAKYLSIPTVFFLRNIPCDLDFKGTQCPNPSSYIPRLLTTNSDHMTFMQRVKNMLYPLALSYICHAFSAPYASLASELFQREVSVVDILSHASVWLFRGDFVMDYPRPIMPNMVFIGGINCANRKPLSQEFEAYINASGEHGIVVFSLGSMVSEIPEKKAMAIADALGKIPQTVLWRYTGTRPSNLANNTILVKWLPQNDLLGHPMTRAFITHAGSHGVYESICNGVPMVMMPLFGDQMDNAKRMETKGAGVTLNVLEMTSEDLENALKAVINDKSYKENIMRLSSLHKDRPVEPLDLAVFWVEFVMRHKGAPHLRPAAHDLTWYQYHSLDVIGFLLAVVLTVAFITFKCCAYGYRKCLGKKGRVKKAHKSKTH
Experimental: as §1

[5] = biological target: T4, CYP1A2 (Homo sapiens, UniProt P05177); assay: CYP1A2 inhibition in HLMs (phenacetin, cocktail, IC50 and IC50 shift); format: in vitro ADME
T4 construct: pooled HLMs (0.25 mg/mL); tissue XenoTech H2630; host or cells: pooled human liver microsomes, mixed gender
T4 sequence (P05177 1-516): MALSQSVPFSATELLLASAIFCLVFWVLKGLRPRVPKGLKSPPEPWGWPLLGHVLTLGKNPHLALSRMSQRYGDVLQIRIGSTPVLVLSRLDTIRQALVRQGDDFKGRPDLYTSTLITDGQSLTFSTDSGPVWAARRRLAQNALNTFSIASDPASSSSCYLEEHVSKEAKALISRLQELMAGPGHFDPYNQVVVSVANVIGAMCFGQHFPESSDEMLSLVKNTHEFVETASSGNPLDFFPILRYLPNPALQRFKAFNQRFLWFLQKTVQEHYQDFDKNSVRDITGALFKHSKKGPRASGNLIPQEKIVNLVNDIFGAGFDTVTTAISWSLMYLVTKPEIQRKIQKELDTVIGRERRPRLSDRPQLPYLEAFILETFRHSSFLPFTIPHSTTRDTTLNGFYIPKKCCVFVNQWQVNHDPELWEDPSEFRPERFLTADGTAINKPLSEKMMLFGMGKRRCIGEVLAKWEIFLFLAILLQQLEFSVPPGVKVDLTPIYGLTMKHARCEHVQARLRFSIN
Experimental: Lignans were first dissolved in methanol. […] All microsomal incubations were performed in triplicate.

[6] = IC50 TDI, 30 min pre-incubation with NADPH generating system
[7] = HLMs, 30 min pre-incubation with NADPH generating system, read-out: IC50 TDI, CYP1A2
[8] = HLMs, reversible inhibition, no 30 min NADPH pre-incubation, read-out: IC50 RI, CYP1A2

## COc1cc2c(c(OC)c1OC)-c1c(cc(OC)c(OC)c1OC)C[C@](C)(O)[C@@H](C)C2 [Schisandrin, schisandrin]
[1]
  IC50: > 50 µM
[2]
  IC50: > 50 µM
[3]; IC50 RI, reversible inhibition
  IC50: 40.2 µM
[3]; [6]
  IC50: > 50 µM
[4]
  IC50: > 50 µM
[5]; IC50 RI, CYP1A2, HLMs, reversible inhibition, no 30 min NADPH pre-incubation
  IC50: 4 µM
[5]; IC50 TDI, CYP1A2, HLMs, 30 min pre-incubation with NADPH generating system
  IC50: > 50 µM

## COc1cc2c(c(OC)c1OC)-c1c(cc3c(c1OC)OCO3)C[C@H](C)[C@H](C)C2 [Gomisin N, gomisin N]
[1]
  IC50: > 50 µM
[2]
  IC50: > 50 µM
[3]; IC50 RI, reversible inhibition
  IC50: 42 µM
[3]; [6]
  IC50: > 50 µM
[4]
  IC50: 26.9 µM
[5]; [7]
  IC50: > 50 µM
[5]; [8]
  IC50: > 50 µM

## COc1cc2c(c(OC)c1OC)-c1c(cc3c(c1OC)OCO3)C[C@H](C)[C@](C)(O)[C@H]2OC(=O)c1ccccc1 [Gomisin C, gomisin C]
[1]
  IC50: > 50 µM
[2]
  IC50: 24 µM
[3]; IC50 RI, reversible inhibition
  IC50: > 50 µM
[3]; [6]
  IC50: > 50 µM
[4]
  IC50: 15 µM
[5]; [7]
  IC50: > 50 µM
[5]; [8]
  IC50: > 50 µM

## COc1c2c(cc3c1-c1c(cc4c(c1OC)OCO4)C[C@H](C)[C@H](C)C3)OCO2 [Wuweizisu C, wuweizisu C]
[1]
  IC50: > 50 µM
[2]
  IC50: > 50 µM
[3]; IC50 RI, reversible inhibition
  IC50: 20.3 µM
[3]; [6]
  IC50: 28.2 µM
[4]
  IC50: > 50 µM
[5]; [7]
  IC50: 22.4 µM
[5]; [8]
  IC50: 25.6 µM
